Measured values published in publication PMC10620772, “Design, synthesis, and biological evaluation of new pyrimidine-5-carbonitrile derivatives as novel anti-cancer, dual EGFR^WT/COX-2 inhibitors with docking studies” (RSC Advances, 2023).

Key:
Type in all cases: cell-based, human
SNB-75 = test: NCI60 antitumor screening; settings: 10 μM one-dose
CAKI-1 = test: NCI60 antitumor screening; settings: 10 μM one-dose
T-47D = test: NCI60 antitumor screening; settings: 10 μM one-dose
NCI-H522 = test: NCI60 antitumor screening; settings: 10 μM one-dose
BT-549 = test: NCI60 antitumor screening; settings: 10 μM one-dose
NCI/ADR-RES = test: NCI60 antitumor screening; settings: 10 μM one-dose
SR = test: NCI60 antitumor screening; settings: 10 μM one-dose
786–0 = test: NCI60 antitumor screening; settings: 10 μM one-dose
NCI-H322M = test: NCI60 antitumor screening; settings: 10 μM one-dose
LOX IMVI = test: NCI60 antitumor screening; settings: 10 μM one-dose
NCI60 cell lines panel = test: NCI60 antitumor screening, full panel; settings: 10 μM one-dose, mean over NCI60
Protocol: The National Cancer Institute (NCI), Bethesda, Maryland, United States, selected all of the novel synthesized compounds (2b–d, 3a–d and 4a–p) for in vitro antitumor screening at a single concentration of 10 μM toward the NCI60 cell lines panel covering leukaemia, non-small cell lungs, colon, central nervous system (CNS), melanoma, ovarian, renal, prostate, and breast cancer cells.[32–35] The data were reported as a mean graph of the percent growth of the treated cell lines and expressed as percentage growth inhibition (GI%) in Table 1 and ESI 1.
(2) The molar concentration of the compound responsible for total growth inhibition, also known as total growth inhibition (TGI).
Regarding subpanel selectivity toward certain cancer type, the method of determining a compound's selectivity index is to divide the full panel MG-MID (μM) value by each single subpanel. Values above six indicate high selectivity against the subpanel; moderate selectivity is denoted by values between three and six. Conversely, compounds are termed nonselective if their selectivity is less than three.[30,37]

MDA-MB-435 = test: NCI60 antitumor screening; settings: 10 μM one-dose
MALME-3M = test: NCI60 antitumor screening; settings: 10 μM one-dose
HCC-2998 = test: NCI60 antitumor screening; settings: 10 μM one-dose
OVCAR-8 = test: NCI60 antitumor screening; settings: 10 μM one-dose
HOP-62 = test: NCI60 antitumor screening; settings: 10 μM one-dose
NCI-H226 = test: NCI60 antitumor screening; settings: 10 μM one-dose
MCF7 = test: NCI60 antitumor screening; settings: 10 μM one-dose
SF-268 = test: NCI60 antitumor screening; settings: 10 μM one-dose
OVCAR-5 = test: NCI60 antitumor screening; settings: 10 μM one-dose
MOLT-4 = test: NCI60 antitumor screening; settings: 10 μM one-dose
U251 = test: NCI60 antitumor screening; settings: 10 μM one-dose
SNB-19 = test: NCI60 antitumor screening; settings: 10 μM one-dose
HS 578T = test: NCI60 antitumor screening; settings: 10 μM one-dose
MDA-MB-468 = test: NCI60 antitumor screening; settings: 10 μM one-dose
KM12 = test: NCI60 antitumor screening; settings: 10 μM one-dose
RPMI-8226 = test: NCI60 antitumor screening; settings: 10 μM one-dose
ACHN = test: NCI60 antitumor screening; settings: 10 μM one-dose
IGROV1 = test: NCI60 antitumor screening; settings: 10 μM one-dose
PC-3 = test: NCI60 antitumor screening; settings: 10 μM one-dose
NCI-H460 = test: NCI60 antitumor screening; settings: 10 μM one-dose
HT29 = test: NCI60 antitumor screening; settings: 10 μM one-dose
HCT-15 = test: NCI60 antitumor screening; settings: 10 μM one-dose
OVCAR-4 = test: NCI60 antitumor screening; settings: 10 μM one-dose
SN12C = test: NCI60 antitumor screening; settings: 10 μM one-dose
SK-MEL-28 = test: NCI60 antitumor screening; settings: 10 μM one-dose
SK-OV-3 = test: NCI60 antitumor screening; settings: 10 μM one-dose
SK-MEL-5 = test: NCI60 antitumor screening; settings: 10 μM one-dose
RXF 393 = test: NCI60 antitumor screening; settings: 10 μM one-dose
SF-539 = test: NCI60 antitumor screening; settings: 10 μM one-dose
TK-10 = test: NCI60 antitumor screening; settings: 10 μM one-dose
SF-295 = test: NCI60 antitumor screening; settings: 10 μM one-dose
HL-60(TB) = test: NCI60 antitumor screening; settings: 10 μM one-dose
NCI-H23 = test: NCI60 antitumor screening; settings: 10 μM one-dose
UO-31 = test: NCI60 antitumor screening; settings: 10 μM one-dose
A498 = test: NCI60 antitumor screening; settings: 10 μM one-dose
SW-620 = test: NCI60 antitumor screening; settings: 10 μM one-dose
COLO 205 = test: NCI60 antitumor screening; settings: 10 μM one-dose
K-562 = test: NCI60 antitumor screening; settings: 10 μM one-dose
SK-MEL-2 = test: NCI60 antitumor screening; settings: 10 μM one-dose
OVCAR-3 = test: NCI60 antitumor screening; settings: 10 μM one-dose
DU-145 = test: NCI60 antitumor screening; settings: 10 μM one-dose
A549/ATCC = test: NCI60 antitumor screening; settings: 10 μM one-dose
CCRF-CEM = test: NCI60 antitumor screening; settings: 10 μM one-dose
UACC-62 = test: NCI60 antitumor screening; settings: 10 μM one-dose
UACC-257 = test: NCI60 antitumor screening; settings: 10 μM one-dose
MDA-MB-231/ATCC = test: NCI60 antitumor screening; settings: 10 μM one-dose
EKVX = test: NCI60 antitumor screening; settings: 10 μM one-dose
HOP-92 = test: NCI60 antitumor screening; settings: 10 μM one-dose
HCT-116 = test: NCI60 antitumor screening; settings: 10 μM one-dose
M14 = test: NCI60 antitumor screening; settings: 10 μM one-dose

N#Cc1c(-c2ccc(F)cc2)nc(SCc2ccccc2)nc1N1CCOCC1 [4a, 2-(Benzylthio)-4-(4-fluorophenyl)-6-morpholinopyrimidine-5-carbonitrile]
— (GI% < 10): GI% (SNB-75) | GI% (CAKI-1) | GI% (SR) | GI% (786–0) | GI% (NCI-H322M) | GI% (LOX IMVI) | Mean GI% (NCI60 cell lines panel) | GI% (MDA-MB-435) | GI% (MALME-3M) | GI% (HCC-2998) | GI% (HOP-62) | GI% (NCI-H226) | GI% (MCF7) | GI% (SF-268) | GI% (OVCAR-5) | GI% (MOLT-4) | GI% (U251) | GI% (SNB-19) | GI% (MDA-MB-468) | GI% (KM12) | GI% (RPMI-8226) | GI% (ACHN) | GI% (IGROV1) | GI% (PC-3) | GI% (NCI-H460) | GI% (HT29) | GI% (HCT-15) | GI% (OVCAR-4) | GI% (SN12C) | GI% (SK-MEL-28) | GI% (SK-OV-3) | GI% (SK-MEL-5) | GI% (RXF 393) | GI% (TK-10) | GI% (SF-295) | GI% (NCI-H23) | GI% (UO-31) | GI% (A498) | GI% (SW-620) | GI% (COLO 205) | GI% (SK-MEL-2) | GI% (OVCAR-3) | GI% (DU-145) | GI% (A549/ATCC) | GI% (CCRF-CEM) | GI% (UACC-257) | GI% (EKVX) | GI% (M14)
16.91%: GI% (SF-539)
10.65%: GI% (MDA-MB-231/ATCC)
15.08%: GI% (HOP-92)
13.24%: GI% (UACC-62)
16.81%: GI% (NCI-H522)
21.20%: GI% (OVCAR-8)
16.46%: GI% (K-562)
10.37%: GI% (HCT-116)
10.32%: GI% (NCI/ADR-RES)
15.89%: GI% (T-47D)
19.87%: GI% (HS 578T)
31.31%: GI% (HL-60(TB))
19.15%: GI% (BT-549)
